According to patent US20020177526A1, “Insecticidal seed coating” (priority 1996, published 2002):

Assays:
[1] = system: corn rootworm larvae; experiment: Corn rootworm greenhouse bioassay (2 gal pot); assay type: in vivo; settings: Iowa scale 1-6
Description: (§1) Hybrid corn seeds with and without an insecticidal coating are planted in Nebraska, Iowa, Minnesota, Wisconsin and Illinois to determine the efficacy of various coated seed treatments in standard tests. All seeds contain a Captan pretreatment whether or not a coating is applied. Additionally, an overcoat layer is applied to all coated seed which comprises the coating described in Example 2. Banded granular insecticides are applied at the manufactures label rates using granular insecticide applicators. Plot size for each treatment is two ten foot rows spaced 30 inches apart with four replications of each treatment at each location. Non-diaposing 1st instar Western Corn Rootworm larvae are side dressed on both sides of the corn plants in the row at a rate of 800 eggs per foot of row. Application of the insect larvae is made when the corn seedlings are approximately at the two leaf stage. The placement of the larvae is approximately two inches to the side of the corn plants and two inches below the soil surface. Plots are maintained with normal cultural practices until the corn plants reach the flowering stage. At late brown silk stage, 10 sequential roots from each plot are obtained. The corn stalks are cut at approximately 12 inches above the soil line. Each corn root is washed and after washing the roots are rated on a scale of 1-6 using the Iowa Root Rating Method developed at Iowa State University (Hills and Peters, 1971) and used commonly throughout the corn belt. In the rating, 1=no damage or only a few minor feeding scars; 2=feeding scars evident but no roots eaten off to within 1½ inch of the plant; 3=several roots eaten off to within 1½ inch of the plant but never the equivalent of an entire node of roots is destroyed; 4=one root node completely destroyed; 5=two root nodes completely destroyed and 6=three or more root nodes destroyed. A destroyed root is defined as a root that has been pruned to within 1½ inch of the base. […] In addition, a growth chamber and a greenhouse bioassay was used to determine the effect of insecticidal seed coating on corn rootworm control. For growth chamber assay, corn seed was planted in a 16 oz cup with garden Jiffymix, and allowed to grow for two weeks. Twenty neonate corn rootworm larvae are placed in the Jiffymix near corn roots and allowed to feed for approximately 2 weeks. The larvae are then screened out and the % mortality of the larvae is determined. Each corn root is washed and after washing the roots are rated on a scale of 1-6 using the Iowa Root Rating Method developed at Iowa State University (Hills and Peters, 1971). Some of the results are indicated below in Table 3. The greenhouse assay use 2 gallon pot with 20 mesh corn field soil. Forty corn rootworm larvae are placed in each pot when corn plant was at 4 to 5-leaf stage, and allowed to feed for 2 to 3 weeks. Each corn root is washed and after washing the roots are rated on a scale of 1-6 using the Iowa Root Rating Method developed at Iowa State University (Hills and Peters, 1971). Some of the results are indicated below in Table 3.
(§2) Maize seed is treated as described in Examples 1 and 2. A combination of methyl cellulose and polyvinyl alcohol is used as a binder and Celite 266 is used as filler for insecticide solution, which contains the compound of formula II as the insecticide. Bioassay methods are as described in Example 4. Root rating was based on the Iowa State 1-6 scale.

[2] = system: corn rootworm larvae; experiment: Corn rootworm growth chamber bioassay (16 oz cup); assay type: in vivo; settings: Iowa scale 1-6
Description: as §1, §2

| Structure (SMILES) | Greenhouse (2 gal pot) Root Rating ([1]; 0.6 mg/seed) | Greenhouse (2 gal pot) Root Rating ([1]; 1.2 mg/seed) | Greenhouse (2 gal pot) Root Rating ([1]; 1.5 mg/seed) | Greenhouse (2 gal pot) Root Rating ([1]; 2.0 mg/seed) | Growth Chamber (16 oz cup) Root Rating ([2]; 0.01 mg/seed (combination: plus Raze 0.13 mg/seed)) | Growth Chamber (16 oz cup) Root Rating ([2]; 0.03 mg/seed) | Growth Chamber (16 oz cup) Root Rating ([2]; 0.3 mg/seed (combination: plus Raze 0.13 mg/seed)) | Growth Chamber (16 oz cup) Root Rating ([2]; 0.6 mg/seed) | Growth Chamber (16 oz cup) Root Rating ([2]; 0.8 mg/seed) | Growth Chamber (16 oz cup) Root Rating ([2]; 1.0 mg/seed) | Greenhouse (2 gal pot) Root Rating ([1]; 1.0 mg/seed) |
| --- | --- | --- | --- | --- | --- | --- | --- | --- | --- | --- | --- |
| CN1COCN(Cc2cnc(Cl)s2)/C1=N/[N+](=O)[O-] [Formula II] | 2.73 | 3.08 | 2.96 | 2.90 | 5.30 | 4.30 | 2.70 | 2.10 | 2.30 | 2.10 |  |
| Cc1c(F)c(F)c(COC(=O)[C@@H]2[C@H](/C=C(\Cl)C(F)(F)F)C2(C)C)c(F)c1F [Tefluthrin 50%, tefluthrin, reference compound] |  |  |  |  |  |  |  |  |  | 2.30 | 3.52 |
